Experimental data: patent US8143419B2, “Trisubstituted 1,2,4-triazoles” (Janssen Pharmaceutica N. V., priority 2006, dated 2012)
Structures can show the parent of a compound that is named as a salt.

Legend:
[1] = molecular target: T1, hα7-wt nAChR (Homo sapiens, UniProt P36544); experiment: Ca2+ flux imaging (FDSS) (Protocol B), PAM activity with choline as agonist; type: cell-based; conditions: for EC50: "<5" = no top plateau at maximal concentration; for Emax: read-out: % efficacy
T1 construct: expressed in transfected cells
Method: • Hanks buffered saline solution (HBSS, Invitrogen, Belgium), supplemented with 10 mM HEPES (Invitrogen, Belgium), CaCl2 to a final concentration of 5 mM, 0.1% Bovine serum albumin (Sigma-Aldrich NV, Belgium). b) Calcium-Sensitive Dye—Fluo-4AM • Fluo-4AM (Molecular Probes, USA) was dissolved in DMSO containing 10% Pluronic acid (Molecular Probes, USA) to give a stock solution which was diluted in assay buffer supplemented with 5 mM probenicid (Sigma, Aldrich NV, Belgium) to give a final concentration of 2 μM. c) 384-Well Plates • Black 384 well plate black/clear plates, PDL pre-coated (Corning, Incorporated, USA) d) Calcium Flux Measurement
A Functional drug screening system (FDSS, Hamamatsu) was used to measure intracellular free-calcium flux signals.
Monolayers of hα7-wt nAChR-expressing cells were grown in multi-well plates, in particular black-sided, transparent bottomed 384 well plates coated with poly-D-lysine for 24 hours prior to loading with a fluorescent calcium indicator, in a particular embodiment loading with fluo-4AM for up to 120 minutes.
PAM activity was detected in real time by applying the compounds to be tested to the loaded cells along with a α7 nicotinic receptor agonist during constant monitoring of cellular fluorescence in a FDSS. Compounds giving peak fluorescent responses greater than the response due to agonist alone, were considered to be α7 nAChR PAM's. In a particular embodiment, the α7 nicotinic receptor agonist was choline, a more particular embodiment choline applied at a sub-maximal concentration of 100 μM. In a further setting of the present invention the compounds to be tested were applied prior to the α7 nicotinic receptor agonist, in a particular embodiment up to 10 minutes prior to the agonist.
A control response to choline was calculated on each plate from the difference in peak in fluorescence in wells receiving either choline or assay buffer alone. Compounds of the present invention were tested at a concentration range from 0.01 μM to 30 μM. Compounds were considered to have an interesting activity when they potentiated the choline signal at least with 500% when tested at a concentration of 30 μM (the efficacy of 100 μM choline was defined as 100% in the absence of a PAM). The compounds also have a potentiating effect on the response to choline when measured by whole-cell patch clamp electrophysiology in GH4C1 cells stably over-expressing the human wild-type α7 receptor.

T1 sequence (P36544 23-502): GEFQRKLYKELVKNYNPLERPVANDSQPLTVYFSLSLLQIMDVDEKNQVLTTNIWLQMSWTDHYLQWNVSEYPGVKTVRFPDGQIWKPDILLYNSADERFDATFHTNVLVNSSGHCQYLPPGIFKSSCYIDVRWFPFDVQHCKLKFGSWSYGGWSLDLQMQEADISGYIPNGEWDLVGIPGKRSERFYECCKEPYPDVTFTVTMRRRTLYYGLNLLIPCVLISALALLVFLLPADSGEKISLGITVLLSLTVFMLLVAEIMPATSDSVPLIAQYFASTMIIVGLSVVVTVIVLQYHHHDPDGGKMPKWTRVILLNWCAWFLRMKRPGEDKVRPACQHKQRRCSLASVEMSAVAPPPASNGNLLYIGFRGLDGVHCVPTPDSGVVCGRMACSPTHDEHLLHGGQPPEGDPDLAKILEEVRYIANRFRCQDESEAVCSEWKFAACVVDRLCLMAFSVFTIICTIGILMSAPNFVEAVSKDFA

SMILES	melting point	EC50 [1]	Emax [1]
CNC(=O)CCn1nc(Nc2cccc(C(F)(F)F)c2)nc1-c1ccc2c(c1)OCCO2 [Compound 12]		794 nM	
COc1cc(OC)c(Nc2nc(-c3ccncc3)n(CCO)n2)cc1Cl [Compound 15]	207.2 to 207.9 °C		
OCCn1nc(Nc2cc(Cl)ccc2Cl)nc1-c1ccccc1 [Compound 17]	140.5 to 142 °C		
CC(C)NC(=O)CCn1nc(Nc2cccc(C(F)(F)F)c2)nc1-c1ccncc1 [Compound 22]	196.5 to 197.2 °C		
CN(C)C(=O)CCn1nc(Nc2ccc(F)c(C(F)(F)F)c2)nc1-c1cnc2c(c1)CCN2 [Compound 58]		158 nM	
Cc1noc(CCn2nc(Nc3ccc(F)c(C(F)(F)F)c3)nc2-c2ccncc2)n1 [Compound 69]		2000 nM	
O=C(CCn1nc(Nc2cccc(C(F)(F)F)c2)nc1-c1ccncc1)N1CCOCC1 [Compound 86]		1260 nM	
CCNC(=O)Cn1nc(Nc2cc(Br)cc(C(F)(F)F)c2)nc1-c1ccc(OC)c(OCc2ccccc2)c1 [Compound 142]		100 nM	
COc1cc(Nc2nc(-c3ccnc(NCCO)c3)n(CC(=O)NCCO)n2)cc(C(F)(F)F)c1 [Compound 147]		> 10000 nM	864%
CN(C)CCNC(=O)Cn1nc(Nc2cccc(OC(F)(F)F)c2)nc1-c1ccc2c(c1)OCCO2 [Compound 161]		1580 nM	550%
CN(C)C(=O)CCn1nc(Nc2cccc(Cl)c2)nc1-c1ccc2c(c1)OCCO2 [Compound 195]		79.4 nM	
COc1ccc(Cl)cc1Nc1nc(-c2ccc3c(c2)OCCO3)n(CCC(=O)N(C)C)n1 [Compound 197]		126 nM	
Cc1cc(-c2nc(Nc3ccc4c(c3)OC(F)(F)O4)nn2CC(C)O)ccn1 (centres unmarked) [Compound 198]		> 10000 nM	
CN(C)C(=O)CCn1nc(N2CCc3ccc(C(F)(F)F)cc32)nc1-c1ccc2c(c1)OCCO2 [Compound 211]		1000 nM	

Results, then the compound that gave them:

melting point	EC50 [1]	Emax [1]	SMILES
204.6 °C			C[C@@H](O)Cn1nc(Nc2ccc(F)c(C(F)(F)F)c2)nc1-c1ccc(C2CC2)nc1 (as salt: HCl) (hydrate or solvate) [Compound 100]
207.5 °C			CC(O)Cn1nc(Nc2cccc(OC(F)(F)F)c2)nc1-c1ccnc(C2CC2)c1 (centres unmarked) (as salt: HCl) [Compound 151]
156.1 °C			CC(C)(C)OC(=O)CCn1nc(Nc2ccc(F)c(C(F)(F)F)c2)nc1-c1ccnc(C#N)c1 [Compound 29]
151.6 °C			CC(C)(C)OC(=O)CCn1nc(Nc2ccc(F)c(C(F)(F)F)c2)nc1-c1ccnc(CN)c1 [Compound 30]
	3980 nM	772%	CN(C)C(=O)CCn1nc(Nc2ccc(F)c(C(F)(F)F)c2)nc1-c1ccnc(CN)c1 [Compound 60]
	3160 nM	764%	COCCNc1ccc(-c2nc(Nc3ccc(F)c(C(F)(F)F)c3)nn2CCO)cn1 [Compound 93]
	2000 nM	899%	OCCn1nc(Nc2ccc(F)c(C(F)(F)F)c2)nc1-c1ccc(NC2CC2)nc1 [Compound 95]
	1000 nM		CCNc1cc(-c2nc(Nc3ccc(F)c(C(F)(F)F)c3)nn2C[C@H](C)O)ccn1 [Compound 99]
	631 nM		C[C@H](O)Cn1nc(Nc2ccc(F)c(C(F)(F)F)c2)nc1-c1ccc(C2CC2)nc1 [Compound 101]
	2000 nM		C[C@H](O)Cn1nc(Nc2ccc(F)c(C(F)(F)F)c2)nc1-c1ccnc(C2CC2)c1 [Compound 102]
	2510 nM		C[C@H](O)Cn1nc(Nc2ccc(F)c(C(F)(F)F)c2)nc1-c1cnc2ccoc2c1 [Compound 106]
	1580 nM		CC(C)(C)NC(=O)CCn1nc(Nc2ccc(F)c(C(F)(F)F)c2)nc1-c1ccncc1 [Compound 137]
	1000 nM	704%	CCNc1cnccc1-c1nc(Nc2cccc(OC(F)(F)F)c2)nn1CC(C)O (centres unmarked) [Compound 149]
	2000 nM		CC(O)Cn1nc(Nc2cccc(OC(F)(F)F)c2)nc1-c1ccnc(C2CC2)c1 (centres unmarked) [Compound 151]
	501 nM		C[C@H](O)Cn1nc(Nc2cc(F)c(F)c(F)c2)nc1-c1ccnc(NC2CC2)c1 [Compound 173]
